In patent US5830902A, “Quinuclidine derivative having tricyclic hetero condensed ring” (Yamanouchi Pharmaceutical Co., Ltd., priority 1995, dated 1998):
Counter-ions that a name gives are not always drawn. Like-named read-outs stand apart in the source and are kept apart here.

What was measured:
[1] = target: T1, human squalene synthase (Homo sapiens, UniProt P37268); assay: Test on human squalene synthase inhibition (HepG2 microsomal fraction); format: biochemical
T1 construct: endogenous in cells; host or cells: HepG2 human hepatoma cells (microsomal fraction)
T1 sequence (P37268 1-417): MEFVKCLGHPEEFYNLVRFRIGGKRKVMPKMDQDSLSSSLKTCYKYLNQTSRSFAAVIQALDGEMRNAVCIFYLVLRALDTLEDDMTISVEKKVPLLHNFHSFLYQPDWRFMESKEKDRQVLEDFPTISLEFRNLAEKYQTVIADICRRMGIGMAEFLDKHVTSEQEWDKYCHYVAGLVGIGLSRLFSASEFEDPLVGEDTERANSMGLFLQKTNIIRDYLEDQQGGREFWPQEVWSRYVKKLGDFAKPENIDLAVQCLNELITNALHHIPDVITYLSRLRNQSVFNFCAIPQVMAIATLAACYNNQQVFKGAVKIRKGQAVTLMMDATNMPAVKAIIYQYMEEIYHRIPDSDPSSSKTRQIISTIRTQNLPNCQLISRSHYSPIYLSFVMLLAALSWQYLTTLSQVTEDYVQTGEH
Protocol: A. Test on human squalene synthase inhibition
(1) Preparation of squalene synthase from human hepatoma cells
Human hepatoma cells (HepG2 cells) were cultured using DMEM containing 10% FBS until a single layer was formed, and then the medium was replaced by DMEM supplemented with 10% human lipoprotein deficient serum (LPDS) to carry out 24 hours of culturing. The cells were washed twice with PBS, collected using a Rubber Policeman and subjected to centrifugation. The resulting precipitate was homogenized in five volumes of 50 mM Hepes buffer (pH 7.5) containing 5 mM EDTA and centrifuged at 20,000×g for 15 minutes. The supernatant was again subjected to the same centrifugation. The supernatant was subjected to 1 hour of centrifugation at 100,000×g, and the microsomes obtained were suspended in the same buffer and used in the test as a HepG2 squalene synthase fraction.
(2) Measurement of squalene synthase inhibiting activity
A dimethyl sulfoxide solution of each drug to be tested was added to a solution of the squalene synthase fraction prepared above (protein 10 ng, 50 mM Hepes buffer (pH 7.5)), 11 mM NaF, 5.5 mM MgCl2, 3 mM DTT, 1 mM NADPH, 1 mM pyrophosphate and 2.5 μM ^3 H-FPP, and the mixture was adjusted to a total volume of 0.2 ml and shaken at 30° C. for 20 minutes to effect the reaction. The reaction was terminated by adding 100 μl of 20% potassium hydroxide-50% ethanol solution, and the reaction solution was heated at 65° C. for 30 minutes. The un-saponified material was extracted with petroleum ether, and 1/3 volume thereof was subjected to measurement by a liquid scintillation counter. The ^3 H radioactivity of the un-saponified material was regarded as products down stream of squalene in the cholesterol biosynthesis system, and the squalene synthase inhibiting action was calculated by comparing ^3 H radioactivities of the test group and control group.
In addition, concentration of each compound of the present invention to inhibit 50% of squalene synthase (IC50 value) was obtained by calculation.

[2] = Cholesterol lowering action in hamster; format: in vivo; settings: male golden hamsters; 50 mg/kg in 0.5% methyl cellulose, administered by force; 5 days; blood 2 hours after final administration
Protocol: C. Cholesterol lowering action in hamster
Male golden hamsters (130 to 150 g) which have been treated by reversing night and day since 12 or more days before the commencement of administration were divided into groups 4 days before the administration in such a manner that the cholesterol value became the same among the groups. Each drug was prepared as a 0.5% methyl cellulose solution and administered by force in a dosage of 50 mg/kg. In this case, the liquid volume was 10 ml/kg.
The administration was carried out continuously for 4 days at around A.M. 11:00 under satiated condition and then on the fifth day after 16 hours of fasting. After 2 hours of the final administration, blood samples were collected from the abdominal vena cava under diethyl ether anesthesia and their cholesterol values were measured using an automatic analyzer (Hitachi 736).

[3] = test system: enzyme located at a downstream stage of the cholesterol biosynthesis system; settings: background art; cited from earlier work

| SMILES | IC50 ([1]; squalene synthase derived from human hepatoma (HepG2) cells, 2.5 μM 3H-FPP, 30° C., 20 minutes, read-out: IC50 value of squalene synthase inhibiting activity) | Lowering ratio (cholesterol) [2] | IC50 [1] | desmosterol accumulation / cataracts [3] |
| --- | --- | --- | --- | --- |
| F/C(COc1ccc2c(c1)[nH]c1ccccc12)=C1/CN2CCC1CC2 [Example 1, (E)-3-[2-(Carbazol-2-yloxy)-1-fluoroethylidene]quinuclidine hydrochloride] | 79 nM | 57% | – | – |
| C(/COc1ccc2c(c1)[nH]c1ccccc12)=C1/CN2CCC1CC2.Cl [Example 2, (Z)-3-[2-(Carbazol-2-yloxy)ethylidene]quinuclidine hydrochloride] | – | 39% | 59 nM | – |
| CN1c2ccccc2Sc2cc(COC3CN4CCC3CC4)ccc21.Cl (stereo not shown) [Example 17, 3-(10-Methylphenothiazin-3-ylmethoxy)quinuclidine hydrochloride] | – | 46% | 85 nM | – |
| CCN(CC)CCOc1ccc(C(O)(Cc2ccc(Cl)cc2)c2ccc(C)cc2)cc1 (stereo not shown) [triparanol] | – | – | – | accumulates desmosterol which causes the cataracts |
